Reference: US20220380310A1, “P2X7R ANTAGONISTS” (priority 2019, published 2022)
Counter-ions that a name gives are not always drawn.

Columns and labels:
P2X7R = molecular target: T1, P2X7R (Homo sapiens, UniProt Q99572); experiment: Yo-Pro-1 uptake assay (Yo-Pro-1 Assay) in HEK-293 cells transiently transfected with P2X7R; assay type: cell-based; details: for remaining activity at 5 µM: HEK293, compound at 5 μM, 30 μM bzATP stimulus, reading 1 hour after stimulation, transfected HEK-293 cells, read-out: Percentage of activity remains in the presence of the compound at 5 μM, P2X7R (Yo-Pro-1 Assay); for IC50: HEK-293 cells transiently transfected with P2X7R, 30 μM bzATP as stimulus, readings 1 hour after stimulation, estimated from dose-response curves
T1 construct: expressed in transfected cells; host or cells: HEK-293
T1 sequence (Q99572 1-595): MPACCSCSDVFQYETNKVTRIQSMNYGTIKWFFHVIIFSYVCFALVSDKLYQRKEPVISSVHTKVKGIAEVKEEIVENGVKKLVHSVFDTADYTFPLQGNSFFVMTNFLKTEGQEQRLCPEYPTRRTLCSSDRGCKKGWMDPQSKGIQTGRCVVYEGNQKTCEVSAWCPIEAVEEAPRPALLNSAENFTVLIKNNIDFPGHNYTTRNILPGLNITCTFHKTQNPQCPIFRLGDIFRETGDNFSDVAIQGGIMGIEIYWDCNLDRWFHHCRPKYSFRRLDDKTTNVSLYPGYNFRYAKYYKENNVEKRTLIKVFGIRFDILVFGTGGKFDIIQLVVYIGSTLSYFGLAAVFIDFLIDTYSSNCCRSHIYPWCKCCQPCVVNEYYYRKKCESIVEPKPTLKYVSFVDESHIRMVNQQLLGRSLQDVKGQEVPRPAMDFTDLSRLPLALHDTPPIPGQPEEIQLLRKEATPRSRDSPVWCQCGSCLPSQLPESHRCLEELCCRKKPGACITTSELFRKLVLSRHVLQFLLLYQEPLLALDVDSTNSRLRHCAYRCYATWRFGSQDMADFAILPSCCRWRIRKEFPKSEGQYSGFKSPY
From the text: (§1) Yo-Pro-1 Iodide (Cat. No Y3603 from Fisher Scientific) is a fluorescent DNA-binding dye with a MW of 629 Da. This method is based upon the Yo-Pro-1 entrance to cells through the dilated or “large pore form” of P2X7R and its binding to intracellular DNA whereby it increases its fluorescence intensity (J. Pharmacol. Exp. Ther. 308, 1053-1061). The dye has an absorption spectrum compatible with excitation at 488 nm by argon laser sources and its emission wavelength is in the range of 515-575 nm. This Yo-Pro-1 uptake was measured in HEK-293 cells transiently transfected with P2X7R (J. Biol. Chem. 290, 7930-7942). In Brief, HEK-293 cells were seeded in growth medium at approximately 20,000 cells/well in a 96-well plate on day 1. Transfection was performed on day 2 using Lipofectamine 2000 with the P2X7R DNA plasmid at the concentration of 1.7 μg/ml. The transfection solution was replaced with the growth medium 4 hours later. Fluorescent assays were conducted on day 4. On day 4, the medium was removed, the cells were washed with phosphate buffered saline (PBS) (Cat. No. MT21040CV from Fisher Scientific). Then, 25 μl of PBS were first loaded to each well followed by 25 μl of various test compounds. The third 25 μl of solution contained a mixture of Yo-Pro-1 and stimulus bzATP (2′(3′)-O-(4-Benzoylbenzoyl)adenosine-5′-triphosphate tri(triethylammonium) salt). The final concentration of Yo-Pro-1 was 2.5 μM and of bzATP 30 μM. Fluorescence increases were measured every 30 minutes in a microplate device with excitation at 475 nm and emission wavelength in the range of 500-550 nm. PPADS (Pyridoxalphosphate-6-azophenyl-2′,4′-disulfonic acid tetrasodium) was used as the positive control. The wells with no test compounds added nor bzATP and only containing PBS and Yo-Pro-1 were served as the negative control (N Contl). The positive control (P Contl) wells were the same as N Contl but contained the stimulus, bzATP in this case.
(§2) Data used for analysis were from microplate readings 1 hour after bzATP stimulation. The result of each well was first normalized by its corresponding base microplate reading. The base microplate reading was the first reading right after all components were added. Then, the negative control signal was subtracted from. In the negative control, the test compound and the stimulus were replaced by PBS. An average of six highest values of the plate (AVG) were considered as 100% and the value of each well was divided by AVG and presented as the relative values in percentages.
For comparison of the antagonistic effectiveness of the compounds of this invention among P2X receptors, assays were conducted at 5 μM. Among 55 compounds tested, 29 can reduce the P2X7R activity to […] of the normal activity (Table 2).

[1] = molecular target: T2, Human P2X2 receptor (P2X2R) (Homo sapiens, UniProt Q9UBL9); experiment: Yo-Pro-1 uptake assay, P2X2R transfected HEK-293 cells; assay type: cell-based; details: HEK293, compound at 5 μM, 5 μM ATP stimulus, read-out: Percentage of activity remains in the presence of the compound at 5 μM, P2X2R (Yo-Pro-1 Assay)
T2 construct: expressed in transfected cells; host or cells: HEK-293
T2 sequence (Q9UBL9 1-471): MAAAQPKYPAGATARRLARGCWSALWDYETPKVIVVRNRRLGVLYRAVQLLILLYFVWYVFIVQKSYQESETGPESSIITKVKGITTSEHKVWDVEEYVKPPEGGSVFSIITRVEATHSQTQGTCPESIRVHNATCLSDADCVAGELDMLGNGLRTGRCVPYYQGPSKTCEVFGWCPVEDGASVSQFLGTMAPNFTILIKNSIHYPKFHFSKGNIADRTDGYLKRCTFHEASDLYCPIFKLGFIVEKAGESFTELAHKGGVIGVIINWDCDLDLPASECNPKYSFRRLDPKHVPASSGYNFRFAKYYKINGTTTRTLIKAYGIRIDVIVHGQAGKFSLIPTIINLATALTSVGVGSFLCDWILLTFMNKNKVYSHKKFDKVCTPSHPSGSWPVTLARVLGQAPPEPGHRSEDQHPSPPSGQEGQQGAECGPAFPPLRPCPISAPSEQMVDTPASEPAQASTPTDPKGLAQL
From the text: as §1, §2
Human P2X2 receptor (P2X2R) construct (J. Biol. Chem. 290, 7930-7942) was transiently transfected to HEK-293 cells and the Yo-Pro-1 assay was performed as described above. When 5 μM ATP was used as the stimulus, the elevation of receptor mediated activity can be seen in 10 minutes.

| SMILES | remaining activity at 5 µM (P2X7R) | IC50 (P2X7R) | remaining activity at 5 µM [1] |
| --- | --- | --- | --- |
| CS(=O)(=O)c1ccc(N2CCCC(NC(=O)CCc3ccccc3)C2)cc1 (stereo not drawn) [#1] | 20% | 3.9 µM | 44% |
| COc1ccc(S(=O)(=O)N2CCCC(NC(=O)CCc3ccccc3)C2)cc1 (stereo not drawn) [#2] | 15.8% | 2.8 µM | 54.6% |
| O=C(CCc1ccccc1)NC1CCCN(S(=O)(=O)c2ccc(F)cc2)C1 (stereo not drawn) [#3] | 13.5% | 3.2 µM | 57% |
| O=C(CCc1ccccc1)NC1CCCN(S(=O)(=O)c2ccc(OCc3ccccc3)cc2)C1 (stereo not drawn) [#4] | 38.4% | 8.2 µM | 64.9% |
| O=C(CCc1ccccc1)NC1CCCN(S(=O)(=O)c2ccc(N3CCCCC3)cc2)C1 (stereo not drawn) [#5] | -7.3% | 0.2 µM | 55.5% |
| CC(C)COc1ccc(S(=O)(=O)N2CCCC(NC(=O)CCc3ccccc3)C2)cc1 (stereo not drawn) [#6] | 10.7% | 2.7 µM | 54.3% |
| CC(C)S(=O)(=O)c1ccc(N2CCCC(NC(=O)CCc3ccccc3)C2)cc1 (stereo not drawn) [#7] | 14.1% | 6 µM | 77.6% |
| O=C(CCc1ccccc1)NC1CCCN(S(=O)(=O)Cc2ccc(Br)cc2)C1 (stereo not drawn) [#8] | -14.5% | 2.1 µM | 63.8% |
| O=C(CCc1ccccc1)NC1CCCN(S(=O)(=O)c2ccc(-n3cc(Br)cn3)cc2)C1 (stereo not drawn) [#9] | 10.2% | 16 µM | 76.9% |
| O=S(=O)(c1ccccc1)C1CN(S(=O)(=O)c2ccc(N3CCCCC3)cc2)C1 [#10] | 70.1% | 5.9 µM | 38.2% |
| O=S(=O)(c1ccccc1)C1CN(S(=O)(=O)c2ccc(N3CCOCC3)cc2)C1 [#11] | 80.9% | 9.9 µM | 44% |
| O=C(CCc1ccccc1)NC1CCCN(S(=O)(=O)c2ccc(N3CCOCC3)cc2)C1 (stereo not drawn) [#12] | 44.3% | 6.7 µM | 41.8% |
| O=C(CCc1ccccc1)NC1CCCN(S(=O)(=O)c2ccc(N3CCCC3)cc2)C1 (stereo not drawn) [#13] | 0.8% | 1.6 µM | 48.9% |
| CN(C)c1ccc(S(=O)(=O)N2CCCC(NC(=O)CCc3ccccc3)C2)cc1 (stereo not drawn) [#14] | -6.1% | 1.4 µM | 54.3% |
| CCCCNc1ccc(S(=O)(=O)N2CCCC(NC(=O)CCc3ccccc3)C2)cc1 (stereo not drawn) [#15] | -12.2% | 1 µM | 85% |
| O=C1CCC(N2Cc3c(NC(=O)CCc4ccccc4)cccc3C2=O)C(=O)N1 (stereo not drawn) [#16] | 26% | 3.6 µM | 83.8% |
| COCCOc1ccc(S(=O)(=O)N2CCCC(NC(=O)CCc3ccccc3)C2)cc1 (stereo not drawn) [#17] | 53.4% | 16.1 µM | 91.6% |
| CN1CCN(c2ccc(S(=O)(=O)N3CCCC(NC(=O)CCc4ccccc4)C3)cc2)CC1 (stereo not drawn) [#18] | 41.5% | 31.2 µM | 52.7% |
| O=C(NCCc1ccccc1)C1CCN(S(=O)(=O)c2ccc(N3CCCCC3)cc2)CC1 [#20] | 7% | 1 µM | 61.5% |
| O=C(NCCc1ccccc1)C1CCN(S(=O)(=O)c2ccc(N3CCCC3)cc2)CC1 [#21] | 36.2% | 0.9 µM | 50.8% |
| CC(C)(C)OC(=O)N1CCN(c2ccc(S(=O)(=O)N3CCC(C(=O)NCCc4ccccc4)CC3)cc2)CC1 [#22] | 43% | 12.6 µM | 72% |
| O=C(NCCc1ccccc1)C1CCN(S(=O)(=O)c2ccc(N3CCOCC3)cc2)CC1 [#23] | 35.8% | 26.6 µM | 77.1% |
| O=C(NCCc1ccccc1)C1CCCN(S(=O)(=O)c2ccc(N3CCOCC3)cc2)C1 (stereo not drawn) [#24] | 32.6% | 10.2 µM | 70.9% |
| O=C(NCCc1ccccc1)C1CCCN(S(=O)(=O)c2ccc(N3CCCC3)cc2)C1 (stereo not drawn) [#25] | 36.8% | 5.1 µM | 79.3% |
| CCCCNc1ccc(S(=O)(=O)N2CCC(C(=O)O)CC2)cc1 [#27] | 59% | 9.3 µM | 55.4% |
| NC(=O)c1cc(Br)cc(N2CCOCC2)c1 [#28] | 75.2% | 29 µM | 77.3% |
| O=C(CCc1ccccc1)N1CCNCC1 [#29, hydrochloride] | 88.1% | 10.1 µM | 89.4% |
| O=C(CCc1ccccc1)N1CCN(S(=O)(=O)c2ccc(F)cc2)CC1 [#30] | 52.2% | 1490 µM | 74.9% |
